Test results: ChEMBL document CHEMBL5608200, “Design, synthesis, and evaluation of antitumor activity of 2-arylmethoxy-4-(2-fluoromethyl-biphenyl-3-ylmethoxy) benzylamine derivatives as PD-1/PD-l1 inhibitors” (Eur J Med Chem, 2024)
The source made the active and inactive calls. The calls are words filed in the database; no cut-off is given here.

Key:
MDA-MB-231 [1] = assay: Induction of T-cell mediated apoptosis in human MDA-MB-231 cells cocultured with PMA-stimulated Jurkat T cells assessed as mortality rate at 4 uM incubated for 48 hrs by CCK-8 assay; type: functional
MC-38 [2] = assay: Antitumor activity against mouse MC38 cells expressing hPD-L1 implanted in PD-1/PD-L1 humanized C57BL/6 mouse assessed as upregulation of CXCL9 mRNA expression at 50 mg/kg, IG QD administered for 15 days by RT-PCR analysis; type: functional, organism-based; conditions: time 15.0 day
HCC827 [3] = assay: Induction of T-cell mediated apoptosis in human HCC827 cells cocultured with PMA-stimulated Jurkat T cells assessed as mortality rate at 32 uM incubated for 48 hrs by CCK-8 assay; type: functional
MC-38 [4] = assay: Antitumor activity against mouse MC38 cells expressing hPD-L1 implanted in PD-1/PD-L1 humanized C57BL/6 mouse assessed as upregulation of CXCL10 mRNA expression at 50 mg/kg, IG QD administered for 15 days by RT-PCR analysis; type: functional, organism-based; conditions: time 15.0 day
[5] = Clearance in Sprague-Dawley rat at 50 mg/kg, IG measured upto 48 hrs by LC-MS/MS analysis; type: ADME, organism-based; conditions: in vivo, po
MC-38 [6] = assay: Antitumor activity against mouse MC38 cells expressing hPD-L1 implanted in PD-1/PD-L1 humanized C57BL/6 mouse assessed as increase in ratio of CD3+/CD8+ to CD3+/CD4+ cells at 50 mg/kg, IG QD administered for 15 days by flow cytometry analysis; type: functional, organism-based; conditions: time 15.0 day
[7] = Toxicity in PD-1/PD-L1 humanized C57BL/6 mouse implanted with mouse MC38 cells expressing hPD-L1 assessed as change in liver morphology at 50 mg/kg, IG QD administered for 15 days by H and E staining based inverted fluorescent microscopic assay; type: organism-based, MC-38; conditions: in vivo, po, 360 h, time 15 day
[8] = AUC(0 to infinity) in Sprague-Dawley rat at 10 mg/kg, iv measured upto 48 hrs by LC-MS/MS analysis; type: ADME, organism-based; conditions: in vivo
[9] = AUC(0 to infinity) in Sprague-Dawley rat at 50 mg/kg, IG measured upto 48 hrs by LC-MS/MS analysis; type: ADME, organism-based; conditions: in vivo, po
[10] = AUC(0 to t) in Sprague-Dawley rat at 10 mg/kg, iv measured upto 48 hrs by LC-MS/MS analysis; type: ADME, organism-based; conditions: in vivo
MDA-MB-231 [11] = assay: Induction of T-cell mediated apoptosis in human MDA-MB-231 cells cocultured with PMA-stimulated Jurkat T cells assessed as mortality rate at 16 uM incubated for 48 hrs by CCK-8 assay; type: functional
[12] = Oral bioavilability in Sprague-Dawley rat at 50 mg/kg measured upto 48 hrs by LC-MS/MS analysis; type: ADME, organism-based; conditions: in vivo
[13] = Half-life in Sprague-Dawley rat at 10 mg/kg, iv measured upto 48 hrs by LC-MS/MS analysis; type: ADME, organism-based; conditions: in vivo
MC-38 [14] = assay: Antitumor activity against mouse MC38 cells expressing hPD-L1 implanted in PD-1/PD-L1 humanized C57BL/6 mouse assessed as downregulation of PD-L1 mRNA expression at 50 mg/kg, IG QD administered for 15 days by RT-PCR analysis; type: functional, organism-based; conditions: time 15.0 day
HCC827 [15] = assay: Cytotoxicity against human HCC827 cells at 1 to 32 uM incubated for 48 hrs by CCK-8 assay; type: functional, cell-based; conditions: dose 1-32 µM
HCC827 [16] = assay: Induction of T-cell mediated apoptosis in human HCC827 cells cocultured with PMA-stimulated Jurkat T cells assessed as mortality rate at 4 uM incubated for 48 hrs by CCK-8 assay; type: functional
[17] = Apparent volume of distribution in Sprague-Dawley rat at 10 mg/kg, iv measured upto 48 hrs by LC-MS/MS analysis; type: ADME, organism-based; conditions: in vivo
MC-38 [18] = assay: Antitumor activity against mouse MC38 cells expressing hPD-L1 implanted in PD-1/PD-L1 humanized C57BL/6 mouse assessed as tumor growth inhibition at 50 mg/kg, IG QD administered for 15 days and measured every day by caliper method; type: functional; conditions: MC-38, po, 360 h, time 15 day, read-out: TGI
[19] = Half-life in Sprague-Dawley rat at 50 mg/kg, IG measured upto 48 hrs by LC-MS/MS analysis; type: ADME, organism-based; conditions: in vivo, po
HCC827 [20] = assay: Induction of T-cell mediated apoptosis in human HCC827 cells cocultured with PMA-stimulated Jurkat T cells assessed as mortality rate at 8 uM incubated for 48 hrs by CCK-8 assay; type: functional
[21] = AUC(0 to t) in Sprague-Dawley rat at 50 mg/kg, IG measured upto 48 hrs by LC-MS/MS analysis; type: ADME, organism-based; conditions: in vivo, po
[22] = Toxicity in PD-1/PD-L1 humanized C57BL/6 mouse implanted with mouse MC38 cells expressing hPD-L1 assessed as change in lung morphology at 50 mg/kg, IG QD administered for 15 days by H and E staining based inverted fluorescent microscopic assay; type: organism-based, MC-38; conditions: in vivo, po, 360 h, time 15 day
[23] = Cmax in Sprague-Dawley rat at 50 mg/kg, IG measured upto 48 hrs by LC-MS/MS analysis; type: ADME, organism-based; conditions: in vivo, po
[24] = Toxicity in PD-1/PD-L1 humanized C57BL/6 mouse implanted with mouse MC38 cells expressing hPD-L1 assessed as hepatotoxicity at 50 mg/kg, IG QD administered for 15 days; type: organism-based, MC-38; conditions: in vivo, po, 360 h, time 15 day
[25] = Toxicity in PD-1/PD-L1 humanized C57BL/6 mouse implanted with mouse MC38 cells expressing hPD-L1 assessed as nephrotoxicity at 50 mg/kg, IG QD administered for 15 days; type: organism-based, MC-38; conditions: in vivo, po, 360 h, time 15 day
[26] = Toxicity in PD-1/PD-L1 humanized C57BL/6 mouse implanted with mouse MC38 cells expressing hPD-L1 assessed as change in kidney morphology at 50 mg/kg, IG QD administered for 15 days by H and E staining based inverted fluorescent microscopic assay; type: organism-based, MC-38; conditions: in vivo, po, 360 h, time 15 day
Jurkat = assay: Cytotoxicity against human Jurkat T cells at 1 to 32 uM incubated for 48 hrs by CCK-8 assay; type: functional, cell-based; conditions: dose 1-32 µM
[27] = Toxicity in PD-1/PD-L1 humanized C57BL/6 mouse implanted with mouse MC38 cells expressing hPD-L1 assessed as change in heart morphology at 50 mg/kg, IG QD administered for 15 days by H and E staining based inverted fluorescent microscopic assay; type: organism-based, MC-38; conditions: in vivo, po, 360 h, time 15 day
[28] = Toxicity in PD-1/PD-L1 humanized C57BL/6 mouse implanted with mouse MC38 cells expressing hPD-L1 assessed as change in spleen morphology at 50 mg/kg, IG QD administered for 15 days by H and E staining based inverted fluorescent microscopic assay; type: organism-based, MC-38; conditions: in vivo, po, 360 h, time 15 day
A549 = assay: Cytotoxicity against human A549 cells at 1 to 32 uM incubated for 48 hrs by CCK-8 assay; type: functional, cell-based; conditions: dose 1-32 µM
[29] = Tmax in Sprague-Dawley rat at 50 mg/kg, IG measured upto 48 hrs by LC-MS/MS analysis; type: ADME, organism-based; conditions: in vivo, po
MDA-MB-231 [30] = assay: Induction of T-cell mediated apoptosis in human MDA-MB-231 cells cocultured with PMA-stimulated Jurkat T cells assessed as mortality rate at 8 uM incubated for 48 hrs by CCK-8 assay; type: functional
[31] = Cmax in Sprague-Dawley rat at 10 mg/kg, iv measured upto 48 hrs by LC-MS/MS analysis; type: ADME, organism-based; conditions: in vivo
[32] = Toxicity in PD-1/PD-L1 humanized C57BL/6 mouse implanted with mouse MC38 cells expressing hPD-L1 assessed as animal death at 50 mg/kg, IG QD administered for 15 days; type: organism-based, MC-38; conditions: in vivo, po, 360 h, time 15 day

N#Cc1cncc(COc2cc(OCc3cccc(-c4ccc5c(c4)OCCO5)c3C(F)F)ccc2CNCCO)c1
Activity (MDA-MB-231 [1]): 40.6%
Activity (MC-38 [2]): Active
Activity (HCC827 [3]): 71.2%
Activity (MC-38 [4]): Active
CL [5]: 19.8 mL/min/kg
Activity (MC-38 [6]): Active
Activity [7]: Non-Toxic
AUC(0-inf) [8]: 13900 ng·h/mL
AUC(0-inf) [9]: 42000 ng·h/mL
AUC(0-t) at 48 h [10]: 12800 ng·h/mL
Activity (MDA-MB-231 [11]): 57.1%
bioavailability [12]: 65.3%
t1/2 [13]: 2.47 h
Activity (MC-38 [14]): Active
Activity (HCC827 [15]): inactive
Activity (HCC827 [16]): 40.4%
Vz [17]: 10.1 L/kg
inhibition in vivo at 50 mg/kg (MC-38 [18]): 57.3%
t1/2 [19]: 5.52 h
Activity (HCC827 [20]): 51.7%
AUC(0-t) at 48 h [21]: 41800 ng·h/mL
Activity [22]: Non-Toxic
Cmax [23]: 13500 ng/mL
Activity [24]: Non-Toxic
Activity [25]: Non-Toxic
Activity [26]: Non-Toxic
Activity (Jurkat): inactive
Activity [27]: Non-Toxic
Activity [28]: Non-Toxic
Activity (A549): inactive
Tmax [29]: 2.38 h
Activity (MDA-MB-231 [30]): 45.9%
Cmax [31]: 4560 ng/mL
Activity [32]: Non-Toxic
